This is an account of results in PMC6877102, “A squalamine derivative, NV669, as a novel PTP1B inhibitor: in vitro and in vivo effects on pancreatic and hepatic tumor growth” (Oncotarget, 2019).

This experiment addresses T1, Protein Tyrosine Phosphatase 1B (PTP1B) (Homo sapiens, UniProt P18031).
T1 construct: gene PTPN1; residues 1-322, C-terminal deletion
T1 sequence (P18031 1-322): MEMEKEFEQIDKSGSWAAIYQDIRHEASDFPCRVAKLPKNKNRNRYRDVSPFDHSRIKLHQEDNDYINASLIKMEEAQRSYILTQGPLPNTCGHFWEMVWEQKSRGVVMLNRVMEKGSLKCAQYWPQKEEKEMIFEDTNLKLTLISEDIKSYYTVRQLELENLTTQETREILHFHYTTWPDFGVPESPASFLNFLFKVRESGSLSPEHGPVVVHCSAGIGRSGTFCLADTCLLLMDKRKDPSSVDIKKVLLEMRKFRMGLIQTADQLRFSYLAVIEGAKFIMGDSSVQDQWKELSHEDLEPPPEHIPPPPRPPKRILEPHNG
The experiment is described as follows: Malachite green phosphate release assay with IR5 phosphopeptide on recombinant human PTP1B. In kind it is biochemical.

Molecules are shown by their SMILES.

Regarding `CC(C)CCC[C@@H](C)[C@H]1CC[C@H]2[C@@H]3C[C@@H](NCCCNCCCCNCCCN)[C@H]4C[C@@H](O)CC[C@]4(C)[C@H]3CC[C@]12C` [claramine], the “Malachite green phosphate release assay with IR5 phosphopeptide on recombinant h” value is “Like claramine (a PTP1B inhibitor used here as positive control), we found that NV669 blocked significantly in vitro PTP1B activity”.

As for `CC(C)CCC[C@@H](C)[C@H]1CCC2C3C[C@@H](O)C4=C[C@@H](NCCCNCCCCNCCCN)CC[C@]4(C)C3CC[C@@]21C` (some centres unmarked) [NV669], the “Malachite green phosphate release assay with IR5 phosphopeptide on recombinant h” value is “we found that NV669 blocked significantly in vitro PTP1B activity in a dose- and time-dependent manner”.
